US20140343049A1, “DIHYDROFURAN DERIVATIVES AS INSECTICIDAL COMPOUNDS” (SYNGENTA PARTICIPATIONS AG, priority 2011, published 2014)

Assays:
Format in all cases: in vivo
[1] = tested on: Spodoptera littoralis (Egyptian cotton leafworm); test: Spodoptera littoralis cotton leaf disc spray test; details: foliar, 72 h, cotton leaf discs sprayed at 200 ppm, 5 L1 larvae, mortality, feeding behavior, growth regulation 3 days after treatment
Excerpt: Cotton leaf discs were placed on agar in a 24-well microtiter plate and sprayed with test solutions at an application rate of 200 ppm. After drying, the leaf discs were infested with 5 L1 larvae. The samples were checked for mortality, feeding behavior, and growth regulation 3 days after treatment (DAT).

[2] = tested on: Heliothis virescens (tobacco budworm); test: Heliothis virescens egg test on artificial diet; details: 96 h, 200 ppm (concentration in well 18 ppm), eggs 0-24 h old, 4 days, egg mortality, larval mortality, growth regulation
Description: Eggs (0-24 h old) were placed in 24-well microtiter plate on artificial diet and treated with test solutions at an application rate of 200 ppm (concentration in well 18 ppm) by pipetting. After an incubation period of 4 days, samples were checked for egg mortality, larval mortality, and growth regulation.

[3] = tested on: Plutella xylostella (diamond back moth); test: Plutella xylostella L2 larvae test on artificial diet; details: 144 h, 200 ppm (concentration in well 18 ppm), 6 days, larval mortality and growth regulation
Description: 24-well microtiter plate (MTP) with artificial diet was treated with test solutions at an application rate of 200 ppm (concentration in well 18 ppm) by pipetting. After drying, the MTPs were infested with L2 larvae (7-12 per well). After an incubation period of 6 days, samples were checked for larval mortality and growth regulation.

[4] = tested on: Diabrotica balteata (corn root worm); test: Diabrotica balteata L2 larvae test on artificial diet; details: 120 h, 200 ppm (concentration in well 18 ppm), 5 days, larval mortality and growth regulation
Description: A 24-well microtiter plate (MTP) with artificial diet was treated with test solutions at an application rate of 200 ppm (concentration in well 18 ppm) by pipetting. After drying, the MTPs were infested with L2 larvae (6-10 per well). After an incubation period of 5 days, samples were checked for larval mortality and growth regulation.
A 24-well microtiter plate (MTP) with artificial diet was treated with test solutions at an application rate of 12.5 ppm (concentration in well 18 ppm) by pipetting. After drying, the MTP's were infested with L2 larvae (6-10 per well). After an incubation period of 5 days, samples were checked for larval mortality and growth regulation.

[5] = tested on: Tetranychus urticae (two-spotted spider mite); test: Tetranychus urticae bean leaf disc spray test; details: foliar, 192 h, bean leaf discs sprayed at 200 ppm, mixed ages, egg, larval and adult mortality 8 days later
Excerpt: Bean leaf discs on agar in 24-well microtiter plates were sprayed with test solutions at an application rate of 200 ppm. After drying, the leaf discs are infested with mite populations of mixed ages. 8 days later, discs are checked for egg mortality, larval mortality, and adult mortality. […]

Measured: pest or weed control at 200 ppm

Cc1cc(C2=CC(c3cc(Cl)cc(Cl)c3)(C(F)(F)F)OC2)ccc1C(=O)NCC1CCCO1 (centres unmarked) [Compound A7]
not listed: [5]
≥ 80%: all other assays above

COc1ccc(CNC(=O)c2ccc(C3=CC(c4cc(Cl)cc(Cl)c4)(C(F)(F)F)OC3)cc2C)cc1 (centres unmarked) [Compound A10]
not listed: [4]
≥ 80%: all other assays above

Cc1csc(NC(=O)c2ccc(C3=CC(c4cc(Cl)cc(Cl)c4)(C(F)(F)F)OC3)cc2C)n1 (centres unmarked) [Compound A11]
not listed: [4]
≥ 80%: all other assays above

Cc1cc(C2=CC(c3cc(Cl)cc(Cl)c3)(C(F)(F)F)OC2)ccc1C(=O)NC1(C)CSC1 (centres unmarked) [Compound A12]
not listed: [4]
≥ 80%: all other assays above

Cc1cc(C2=CC(c3cc(Cl)cc(Cl)c3)(C(F)(F)F)OC2)ccc1C(=O)NC1C[S+]([O-])C1 (centres unmarked) [Compound A13]
≥ 80%: [1] | [2] | [5]

Cc1cc(C2=CC(c3cc(Cl)cc(Cl)c3)(C(F)(F)F)OC2)ccc1C(=O)NC1CCC1 (centres unmarked) [Compound A14]
≥ 80%: [1] | [2] | [5]

Cc1cc(C2=CC(c3cc(Cl)cc(Cl)c3)(C(F)(F)F)OC2)ccc1C(=O)NCc1nc2ccccc2[nH]1 (centres unmarked) [Compound A18]
not listed: [1]
≥ 80%: all other assays above

Cc1cc(C2=CC(c3cc(Cl)cc(Cl)c3)(C(F)(F)F)OC2)ccc1C(=O)NC1CCSC1=O (centres unmarked) [Compound A21]
not listed: [5]
≥ 80%: all other assays above

CCC(CO)NC(=O)c1ccc(C2=CC(c3cc(Cl)cc(Cl)c3)(C(F)(F)F)OC2)cc1C (centres unmarked) [Compound A28]
≥ 80%: [1] | [5]

Cc1cc(C2=CC(c3cc(Cl)cc(Cl)c3)(C(F)(F)F)OC2)ccc1C(=O)NC1CC(C)(C)N(C)C(C)(C)C1 (centres unmarked) [Compound A40]
≥ 80%: [5]

Cc1cc(C2=CC(c3cc(Cl)cc(Cl)c3)(C(F)(F)F)OC2)ccc1C(=O)NCc1cccc(Cl)c1 (centres unmarked) [Compound A43]
≥ 80%: [1] | [4] | [5]

CC(=O)NCCNC(=O)c1ccc(C2=CC(c3cc(Cl)cc(Cl)c3)(C(F)(F)F)OC2)cc1C (centres unmarked) [Compound A45]
≥ 80%: [5]

Cc1cc(C2=CC(c3cc(Cl)cc(Cl)c3)(C(F)(F)F)OC2)ccc1C(=O)NCc1ccc(-n2cccn2)cc1 (centres unmarked) [Compound A46]
not listed: [1]
≥ 80%: all other assays above

Cc1cc(C2=CC(c3cc(Cl)cc(Cl)c3)(C(F)(F)F)OC2)ccc1C(=O)NCc1ccco1 (centres unmarked) [Compound A55]
not listed: [5]
≥ 80%: all other assays above

Cc1cc(C2=CC(c3cc(Cl)cc(Cl)c3)(C(F)(F)F)OC2)ccc1C(=O)Nc1ccccc1Cl (centres unmarked) [Compound A56]
not listed: [1]
≥ 80%: all other assays above

COc1ccc(NC(=O)c2ccc(C3=CC(c4cc(Cl)cc(Cl)c4)(C(F)(F)F)OC3)cc2C)c(OC)c1 (centres unmarked) [Compound A58]
not listed: [1]
≥ 80%: all other assays above

Cc1cc(C2=CC(c3cc(Cl)cc(Cl)c3)(C(F)(F)F)OC2)ccc1C(=O)Nc1ccc2[nH]ncc2c1 (centres unmarked) [Compound A60]
not listed: [5]
≥ 80%: all other assays above

CSc1ccccc1NC(=O)c1ccc(C2=CC(c3cc(Cl)cc(Cl)c3)(C(F)(F)F)OC2)cc1C (centres unmarked) [Compound A63]
≥ 80%: [3] | [4] | [5]

Cc1cc(C2=CC(c3cc(Cl)cc(Cl)c3)(C(F)(F)F)OC2)ccc1C(=O)Nc1ccc2ncsc2c1 (centres unmarked) [Compound A64]
not listed: [5]
≥ 80%: all other assays above

O=C(NCc1ccccc1)c1ccc(C2=CC(c3cc(Cl)cc(Cl)c3)(C(F)(F)F)OC2)nc1 (centres unmarked) [Compound B9]
≥ 80%: [3] | [5]

Cc1nc(C2=CC(c3cc(Cl)cc(Cl)c3)(C(F)(F)F)OC2)ccc1C(=O)NCC(F)(F)F (centres unmarked) [Compound C1]
not listed: [5]
≥ 80%: all other assays above

CCCCNC(=O)c1ccc(C2=CC(c3cc(Cl)cc(Cl)c3)(C(F)(F)F)OC2)nc1C (centres unmarked) [Compound C3]
not listed: [5]
≥ 80%: all other assays above

Cc1nc(C2=CC(c3cc(Cl)cc(Cl)c3)(C(F)(F)F)OC2)ccc1C(=O)NCc1ccccc1 (centres unmarked) [Compound C9]
not listed: [5]
≥ 80%: all other assays above

Cc1nc(C2=CC(c3cc(Cl)cc(Cl)c3)(C(F)(F)F)OC2)ccc1C(=O)NCc1ccccc1F (centres unmarked) [Compound C10]
not listed: [5]
≥ 80%: all other assays above

Cc1nc(C2=CC(c3cc(Cl)cc(Cl)c3)(C(F)(F)F)OC2)ccc1C(=O)NC(C)c1ccccc1 (centres unmarked) [Compound C11]
not listed: [5]
≥ 80%: all other assays above

COc1ccc(CNC(=O)c2ccc(C3=CC(c4cc(Cl)cc(Cl)c4)(C(F)(F)F)OC3)nc2C)cc1 (centres unmarked) [Compound C12]
not listed: [5]
≥ 80%: all other assays above

Cc1cc(C2=CC(c3cc(Cl)cc(Cl)c3)(C(F)(F)F)OC2=O)ccc1C(=O)NC1(C)CSC1 (centres unmarked) [Compound E16]
≥ 80%: [5]

N#Cc1cc(C2=CC(c3cc(Cl)cc(Cl)c3)(C(F)(F)F)OC2)ccc1-n1cncn1 (centres unmarked) [Compound G1, 5-[5-(3,5-Dichloro-phenyl)-5-trifluoromethyl-2,5-dihydro-furan-3-yl]-2-[1,2,4]triazol-1-yl-benzonitrile]
not listed: [5]
≥ 80%: all other assays above
